The values below come from patent US4073913A, “N^2 -arylsulfonyl-L-argininamides and the pharmaceutically acceptable salts thereof” (Mitsubishi Chemical Industries Limited, priority 1974, dated 1978).

Non-standard residues stand in square brackets, D forms with d. Residues, ends and D or L forms follow the SMILES beside them. ξ: configuration not given here. *: point of attachment. Dansyl = CN(C)c1cccc2c(S(=O)(=O)*)cccc12; ξPip = O=C(O)C1CCCCN1

One data set addresses T1, thrombin (Bos taurus, UniProt P00735).
T1 construct: clotting of bovine fibrinogen
Briefly: fibrinogen coagulation time (concentration required to prolong the coagulation time by a factor of two). Type of data set: biochemical. Conditions: bovine fibrinogen, thrombin 5 units/ml, borate saline buffer pH 7.4, 25° C; control 50-55 seconds prolonged to 100-110 seconds. On the procedure:
The measurement of the fibrinogen coagulation time was conducted as follows:
Immediately after mixing, the reaction mixture was transferred from the ice bath to a bath maintained at 25° C. Coagulation times were taken as the period between the time of transference to the 25° C bath and the time of the first appearance of fibrin threads. […] The term "concentration required to prolong the coagulation time by a factor of two" is the concentration of an active ingredient required to prolong the normal coagulation time 50-55 seconds to 100-110 seconds.
Turning to `COc1ccc2ccc(S(=O)(=O)N[C@@H](CCCNC(=N)N)C(=O)N3CC[S+]([O-])CC3C(=O)O)cc2c1` (some centres unmarked) [compound 204], the IC (2-fold clotting time) came out at 4.5 µM.
`COc1ccc2ccc(S(=O)(=O)N[C@@H](CCCNC(=N)N)C(=O)N3CCCCCC3C(=O)O)cc2c1` (some centres unmarked) [compound 205] came in with an IC (2-fold clotting time) of 2.5 µM.
Turning to `CCCC(C(=O)O)N(CC(=O)O)C(=O)[C@H](CCCNC(=N)N)NS(=O)(=O)c1ccc2cc(OC)c(OC)cc2c1` (some centres unmarked) [compound 207], the IC (2-fold clotting time) came to 55 µM.
`COc1cc2ccc(S(=O)(=O)N[C@@H](CCCNC(=N)N)C(=O)N(C)C(Cc3ccccc3)C(=O)O)cc2cc1OC` (some centres unmarked) [compound 209] yielded an IC (2-fold clotting time) of 2 µM.
Molecule `COc1ccc2ccc(S(=O)(=O)N[C@@H](CCCNC(=N)N)C(=O)N(C)C(Cc3ccccc3)C(=O)O)cc2c1` (some centres unmarked) [compound 211] displayed an IC (2-fold clotting time) of 2.5 µM.
On the same count and under the same terms, with `COc1cc2ccc(S(=O)(=O)N[C@@H](CCCNC(=N)N)C(=O)N(CC(=O)O)CC(C)OC)cc2cc1OC` (some centres unmarked) [compound 212] the figure was 6.5 µM; with `CCCC(NC(=O)[C@H](CCCNC(=N)N)NS(=O)(=O)c1ccc2cc(OC)c(OC)cc2c1)C(=O)O` (some centres unmarked) [compound 214], 15 µM.
In turn, `COc1cc2ccc(S(=O)(=O)N[C@@H](CCCNC(=N)N)C(=O)N3CCCC[C@@H]3C(=O)O)cc2cc1OC` [compound 220] came in with an IC (2-fold clotting time) of 2 µM.
The molecule `COc1cc2ccc(S(=O)(=O)N[C@@H](CCCNC(=N)N)C(=O)N3CCCC[C@H]3C(=O)O)cc2cc1OC` [compound 221] returned an IC (2-fold clotting time) of 15 µM.
Consider `COc1ccc2ccc(S(=O)(=O)N[C@@H](CCCNC(=N)N)C(=O)N(CC[S+](C)[O-])CC(=O)O)cc2c1` (some centres unmarked) [compound 222], for which the IC (2-fold clotting time) worked out at 6.5 µM.

System in the next data set: not listed separately
Briefly: acute toxicity (LD50), intraperitoneal administration in mice. Type of data set: in vivo, mice (male, 20 g). Conditions: comparison with N^2 -dansyl-L-argininamides; route and species not restated.
With `CCCCNC(=O)[C@H](CCCNC(=N)N)NS(=O)(=O)c1cccc2c(N(C)C)cccc12` [N^2 -dansyl-N-butyl-L-argininamide, reference compound], the “LD50 values (comparison dansyl compounds)” value turned out to be 75 milligrams per kilogram.
Turning to `CCCCN(C)C(=O)[C@H](CCCNC(=N)N)NS(=O)(=O)c1cccc2c(N(C)C)cccc12` [N^2 -dansyl-N-methyl-N-butyl-L-argininamide, reference compound], the “LD50 values (comparison dansyl compounds)” value came to 70 milligrams per kilogram.

Still in this data set, the particulars now being: intraperitoneal, mice (male, 20 g).
Turning to `COc1cc2ccc(S(=O)(=O)N[C@@H](CCCNC(=N)N)C(=O)N(CC(=O)O)C3CCCCC3)cc2cc1OC` [N^2-(6,7-dimethoxy-2-naphthylsulfonyl)-L-arginyl-N-cyclohexylglycine], the LD50 (usually the dose expected to kill half of the subjects tested) was > 1,500 mg/kg.

The data set is the same for the next values; noted with them: mouse, in vivo, ip, intraperitoneal, mice (male, 20 g); read-out: LD50.
As for `CC1CCN(C(=O)[C@H](CCCNC(=N)N)NS(=O)(=O)c2cccc3ccccc23)C(C(=O)O)C1` (stereo partly drawn) [1-N^2-(1-naphthylsulfonyl)-L-arginyl!-4-methyl-2-piperidinecarboxylic acid], the LD50 was 700 to 1000 mg/kg.
Take `CN(C)c1cccc2c(S(=O)(=O)N[C@@H](CCCNC(=N)N)C(=O)N3CCCCC3C(=O)O)cccc12` (stereo partly drawn) [1-N^2-(5-dimethylamino-1-naphthylsulfonyl)-L-arginyl!-2-piperidinecarboxylic acid] (Dansyl-Arg-[ξPip]-OH): the LD50 was 700 to 1000 mg/kg.
Regarding `COc1cc2ccc(S(=O)(=O)N[C@@H](CCCNC(=N)N)C(=O)N3Cc4ccccc4CC3C(=O)O)cc2cc1OC` (stereo partly drawn) [2-N^2-(6,7-dimethoxy-2-naphthylsulfonyl)-L-arginyl!-1,2,3,4-tetrahydroisoquinoline-3-carboxylic acid], the LD50 was above 1000 mg/kg.
For the molecule `COc1cc2ccc(S(=O)(=O)N[C@@H](CCCNC(=N)N)C(=O)N3Cc4ccccc4C3C(=O)O)cc2cc1OC` (stereo partly drawn) [2-N^2-(6,7-dimethoxy-2-naphthylsulfonyl)-L-arginyl!-1-isoindolinecarboxylic acid], the LD50 was above 1000 mg/kg.
Regarding `COc1ccc2ccc(S(=O)(=O)N[C@@H](CCCNC(=N)N)C(=O)N3CCOCC3C(=O)O)cc2c1` (stereo partly drawn) [4-N^2-(7-methoxy-2-naphthylsulfonyl)-L-arginyl!-3-morpholinecarboxylic acid], the LD50 was above 1000 mg/kg.
Consider `COCCN(CC(=O)O)C(=O)[C@H](CCCNC(=N)N)NS(=O)(=O)c1cc(OC)c2cc(OC)ccc2c1` [N^2-(4,6-dimethoxy-2-naphthylsulfonyl)-L-arginyl-N-(2-methoxyethyl)glycine], for which the LD50 lay within 660 to 1000 mg/kg.
For the molecule `COc1ccc2cc(S(=O)(=O)N[C@@H](CCCNC(=N)N)C(=O)N(CC3CCCCC3)[C@@H](C)C(=O)O)cc(OC)c2c1` [N^2-(4,6-dimethoxy-2-naphthylsulfonyl)-L-arginyl-N-cyclohexylmethylalanine], the LD50 was above 1500 mg/kg.
For `CCOCCN(CCC(=O)O)C(=O)[C@H](CCCNC(=N)N)NS(=O)(=O)c1ccc2cc(OC)c(OC)cc2c1` [N^2-(6,7-dimethoxy-2-naphthylsulfonyl)-L-arginyl-N-(2-ethoxyethyl)-β-alanine], the LD50 fell in the range of 660 to 1000 mg/kg.
Consider `CCSCCN(CC(=O)O)C(=O)[C@H](CCCNC(=N)N)NS(=O)(=O)c1ccc2cc(OC)c(OC)cc2c1` [N^2-(6,7-dimethoxy-2-naphthylsulfonyl)-L-arginyl-N-(2-ethylthioethyl)glycine], for which the LD50 was above 1000 mg/kg.
For the molecule `COCCN(CC(=O)O)C(=O)[C@H](CCCNC(=N)N)NS(=O)(=O)c1ccc2cc(OC)c(OC)cc2c1` [N^2-(6,7-dimethoxy-2-naphthylsulfonyl)-L-arginyl-N-(2-methoxyethyl)glycine], the LD50 lay in the range of 1900 to 2400 mg/kg.
On the same count and under the same terms, with `CCCCN(C(=O)[C@H](CCCNC(=N)N)NS(=O)(=O)c1ccc2cc(OC)c(OC)cc2c1)[C@@H](C)C(=O)O` [N^2-(6,7-dimethoxy-2-naphthylsulfonyl)-L-arginyl-N-butylalanine] the figure was above 1500 mg/kg.
On to `COc1cc2ccc(S(=O)(=O)N[C@@H](CCCNC(=N)N)C(=O)N(CC(=O)O)C3CCCCC3)cc2cc1OC` [N^2-(6,7-dimethoxy-2-naphthylsulfonyl)-L-arginyl-N-cyclohexylglycine], for which the LD50 was 1500 mg/kg.
For `COc1cc2ccc(S(=O)(=O)N[C@@H](CCCNC(=N)N)C(=O)N(CC(=O)O)CC3CCCCC3)cc2cc1OC` [N^2-(6,7-dimethoxy-2-naphthylsulfonyl)-L-arginyl-N-cyclohexylmethylglycine], the LD50 was above 1500 mg/kg.
In the case of `COc1cc2ccc(S(=O)(=O)N[C@@H](CCCNC(=N)N)C(=O)N(CC(=O)O)CC3CCCO3)cc2cc1OC` (stereo partly drawn) [N^2-(6,7-dimethoxy-2-naphthylsulfonyl)-L-arginyl-N-tetrahydrofurfurylglycine], the LD50 is 620 mg/kg.
`COCCN(CC(=O)O)C(=O)[C@H](CCCNC(=N)N)NS(=O)(=O)c1ccc2ccc(OC)cc2c1` [N^2-(7-methoxy-2-naphthylsulfonyl)-L-arginyl-N-(2-methoxyethyl)glycine]: the LD50 was found to be 2000 mg/kg.
Same read-out and setting: the value for `Cc1ccc2ccc(S(=O)(=O)N[C@@H](CCCNC(=N)N)C(=O)N(CC(=O)O)CC3CCCO3)cc2c1` (stereo partly drawn) [N^2-(7-methyl-2-naphthylsulfonyl)-L-arginyl-N-tetrahydrofurfurylglycine] was 600 mg/kg.
